“And” between values parts separate entries of the source, which are not always exact repeats. Equal entries are not always repeated.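 Exposure lasted 48 hours, with cells grown in 96-well plates and compounds tested at five concentrations. GI50 marks 50% less growth. TGI: concentration producing complete growth inhibition.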
Experiments:
Assay in all cases: NCI tumour cell line growth inhibition, 48 h
[1] = test system: T-47D breast
[2] = test system: MDA-MB-435
[3] = test system: SK-MEL-2 melanoma
[4] = test system: NCI-H522 lung
[5] = test system: UO-31 renal
[6] = test system: NCI-H23 lung
[7] = test system: SR leukemia
[8] = test system: HL-60(TB) leukemia
[9] = test system: M14 melanoma
[10] = test system: MDA-MB-231 breast
[11] = test system: RPMI-8226 leukemia
[12] = test system: BT-549 breast
[13] = test system: MCF7 breast
[14] = test system: K-562 leukemia
[15] = test system: KM12 colon
[16] = test system: RXF 393 renal
[17] = test system: HOP-62 NSCLC
[18] = test system: OVCAR-5 ovarian
[19] = test system: OVCAR-3 ovarian
[20] = test system: OVCAR-8 ovarian
[21] = test system: SNB-19 CNS
[22] = test system: ACHN renal
[23] = test system: LOX IMVI melanoma
[24] = test system: COLO 205 colon
[25] = test system: MDA-N
[26] = test system: SK-OV-3 ovarian
[27] = test system: PC-3 prostate
[28] = test system: SF-268 CNS
[29] = test system: DU-145 prostate
[30] = test system: NCI-H460 lung
[31] = test system: U251 CNS
[32] = test system: MALME-3M melanoma
[33] = test system: HT29 colon
[34] = test system: A498 renal
[35] = test system: IGROV1 ovarian
[36] = test system: SK-MEL-5 melanoma
[37] = test system: MOLT-4 leukemia
[38] = test system: SN12C renal
[39] = test system: HCT-15 colon
[40] = test system: CCRF-CEM leukemia
[41] = test system: 786-0 renal
[42] = test system: UACC-257 melanoma
[43] = test system: A549 NSCLC
[44] = test system: EKVX NSCLC
[45] = test system: HCT-116 colon
[46] = test system: HOP-92 NSCLC
[47] = test system: SW-620 colon
[48] = test system: HS 578T breast
[49] = test system: SF-539 CNS
[50] = test system: SNB-75 CNS
[51] = test system: SF-295 CNS
[52] = test system: HCC-2998 colon
[53] = test system: NCI/ADR-RES ovarian
[54] = test system: SK-MEL-28 melanoma
[55] = test system: NCI-H226 lung
[56] = test system: OVCAR-4 ovarian
[57] = test system: TK-10 renal
[58] = test system: UACC-62 melanoma
[59] = test system: CAKI-1 renal
[60] = test system: DMS 114 small cell lung
[61] = test system: M19-MEL melanoma
[62] = test system: DLD-1 colon
[63] = test system: HOP-18 NSCLC
[64] = test system: LXFL 529 NSCLC
[65] = test system: DMS 273 small cell lung
[66] = test system: KM20L2 colon

CN(C)CCOc1ccc(/C(=C(/CCCl)c2ccccc2)c2ccccc2)cc1
GI50 [1]: 0.841 µM | GI50 [2]: 0.894 µM | GI50 [3]: 0.975 µM | GI50 [4]: 0.9 µM | GI50 [5]: 0.9 µM | TGI [5]: 13.8 µM and 30.9 µM | GI50 [6]: 1.42 µM | TGI [6]: 5.52 µM and 31.3 µM | GI50 [7]: 1.18 µM | TGI [7]: 3.13 µM and 10 µM | GI50 [8]: 1.06 µM | TGI [8]: 2.11 µM and 15 µM | GI50 [9]: 0.96 µM | GI50 [10]: 1.07 µM | GI50 [11]: 1.03 µM | TGI [11]: 2.5 µM and 23.6 µM | GI50 [12]: 0.976 µM | TGI [12]: 1.8 µM | GI50 [13]: 0.565 µM | GI50 [14]: 1.02 µM | TGI [14]: 2.46 µM and 23.6 µM | GI50 [15]: 1.18 µM | TGI [15]: 12.8 µM and 32.4 µM | GI50 [16]: 0.698 µM | TGI [16]: 1.4 µM | GI50 [17]: 0.993 µM | GI50 [18]: 1.52 µM | TGI [18]: 5.09 µM and 33.5 µM | GI50 [19]: 0.928 µM | GI50 [20]: 1.08 µM | GI50 [21]: 1.85 µM | TGI [21]: 22.6 µM and 28.5 µM | GI50 [22]: 1.8 µM | TGI [22]: 6.55 µM and 31.9 µM | GI50 [23]: 0.819 µM | GI50 [24]: 0.858 µM | TGI [25]: 30.2 µM | GI50 [26]: 1.62 µM | TGI [26]: 5.07 µM | GI50 [27]: 0.901 µM | GI50 [28]: 1.51 µM | TGI [28]: 17.4 µM and 33 µM | GI50 [29]: 1.88 µM | TGI [29]: 18.1 µM and 33.2 µM | GI50 [30]: 0.845 µM | GI50 [31]: 0.815 µM | GI50 [32]: 0.976 µM | GI50 [33]: 0.598 µM | GI50 [34]: 0.885 µM | TGI [34]: 3.12 µM | GI50 [35]: 1.33 µM | GI50 [36]: 0.784 µM | GI50 [37]: 1.12 µM | GI50 [38]: 1.57 µM | TGI [38]: 6.01 µM and 30.3 µM | GI50 [39]: 1.95 µM | TGI [39]: 7.87 µM and 28.1 µM | GI50 [40]: 1.06 µM | TGI [40]: 2.85 µM and 23.5 µM | GI50 [41]: 0.906 µM | GI50 [42]: 0.943 µM | GI50 [43]: 1.27 µM | TGI [43]: 3.24 µM and 29.9 µM | GI50 [44]: 1.81 µM | TGI [44]: 21 µM and 29.4 µM | GI50 [45]: 1.59 µM | TGI [45]: 5.33 µM and 30.4 µM | TGI [46]: 17.1 µM | GI50 [47]: 0.898 µM | GI50 [48]: 0.895 µM | GI50 [49]: 0.891 µM | GI50 [50]: 1.11 µM | TGI [50]: 4.48 µM and 24.2 µM | GI50 [51]: 1.02 µM | GI50 [52]: 0.776 µM | GI50 [53]: 1.6 µM | TGI [53]: 4.95 µM and 30.7 µM | GI50 [54]: 0.912 µM | GI50 [55]: 1.34 µM | TGI [55]: 13.4 µM and 39.3 µM | GI50 [56]: 1.47 µM | TGI [56]: 5.1 µM and 32.9 µM | GI50 [57]: 0.991 µM | GI50 [58]: 0.891 µM | TGI [58]: 1.66 µM | GI50 [59]: 0.979 µM | TGI [59]: 3.73 µM and 29.7 µM

CCCCCCCCOC(CO)CO
TGI [5]: > 100 µM | TGI [6]: > 100 µM | TGI [7]: > 100 µM | TGI [60]: > 100 µM | TGI [8]: > 100 µM | TGI [9]: > 100 µM | TGI [11]: > 100 µM | TGI [61]: > 100 µM | TGI [14]: > 100 µM | TGI [62]: > 100 µM | TGI [17]: > 100 µM | TGI [18]: > 100 µM | TGI [19]: > 100 µM | TGI [20]: > 100 µM | TGI [21]: > 100 µM | TGI [63]: > 100 µM | TGI [22]: > 100 µM | TGI [23]: > 100 µM | TGI [24]: > 100 µM | TGI [26]: > 100 µM | TGI [64]: > 100 µM | TGI [28]: > 100 µM | TGI [30]: > 100 µM | TGI [31]: > 100 µM | TGI [32]: > 100 µM | TGI [33]: > 100 µM | TGI [34]: > 100 µM | TGI [35]: > 100 µM | TGI [36]: > 100 µM | TGI [37]: > 100 µM | TGI [38]: > 100 µM | TGI [39]: > 100 µM | TGI [40]: > 100 µM | TGI [41]: > 100 µM | TGI [42]: > 100 µM | TGI [43]: > 100 µM | TGI [65]: > 100 µM | TGI [45]: > 100 µM | TGI [46]: > 100 µM | TGI [47]: > 100 µM | TGI [66]: > 100 µM | TGI [51]: > 100 µM | TGI [52]: > 100 µM | TGI [54]: > 100 µM | TGI [55]: > 100 µM | TGI [56]: > 100 µM | TGI [57]: > 100 µM | TGI [58]: > 100 µM | TGI [59]: > 100 µM

CCOC(=O)CC1(O)CCCCC1(Sc1ccc(C)cc1)Sc1ccc(C)cc1 (stereo not drawn)
TGI [1]: 85.3 µM | TGI [2]: > 100 µM | TGI [3]: 65.9 µM | TGI [4]: 51 µM | TGI [5]: > 100 µM | TGI [6]: > 100 µM | TGI [7]: > 100 µM | TGI [8]: > 100 µM | TGI [9]: > 100 µM | TGI [10]: > 100 µM | TGI [12]: > 100 µM | TGI [13]: > 100 µM | TGI [14]: > 100 µM | TGI [15]: > 100 µM | TGI [16]: > 100 µM | TGI [17]: > 100 µM | TGI [18]: > 100 µM | TGI [19]: > 100 µM | TGI [20]: > 100 µM | TGI [21]: > 100 µM | TGI [22]: > 100 µM | TGI [23]: > 100 µM | TGI [24]: > 100 µM | TGI [25]: > 100 µM | TGI [26]: > 100 µM | TGI [27]: > 100 µM | TGI [28]: > 100 µM | TGI [29]: > 100 µM | TGI [30]: > 100 µM | TGI [31]: > 100 µM | TGI [32]: 91.8 µM | TGI [33]: > 100 µM | TGI [34]: > 100 µM | TGI [36]: > 100 µM | TGI [37]: > 100 µM | TGI [38]: > 100 µM | TGI [39]: > 100 µM | TGI [40]: > 100 µM | TGI [41]: > 100 µM | TGI [42]: > 100 µM | TGI [43]: > 100 µM | TGI [44]: > 100 µM | TGI [45]: > 100 µM | TGI [46]: > 100 µM | TGI [47]: > 100 µM | TGI [48]: 84.4 µM | TGI [49]: > 100 µM | TGI [50]: > 100 µM | TGI [51]: > 100 µM | TGI [52]: > 100 µM | TGI [53]: > 100 µM | TGI [54]: > 100 µM | TGI [55]: > 100 µM | TGI [56]: > 100 µM | TGI [57]: > 100 µM | TGI [58]: > 100 µM | TGI [59]: > 100 µM
